Data published in patent US12577256B2, “Aryl receptor modulators and methods of making and using the same” (Nogra Pharma Limited, priority 2014, dated 2026).

Assays:
AhR = target: T1, AhR (Homo sapiens, UniProt P35869); details: cited from earlier work
T1 sequence (P35869 11-848): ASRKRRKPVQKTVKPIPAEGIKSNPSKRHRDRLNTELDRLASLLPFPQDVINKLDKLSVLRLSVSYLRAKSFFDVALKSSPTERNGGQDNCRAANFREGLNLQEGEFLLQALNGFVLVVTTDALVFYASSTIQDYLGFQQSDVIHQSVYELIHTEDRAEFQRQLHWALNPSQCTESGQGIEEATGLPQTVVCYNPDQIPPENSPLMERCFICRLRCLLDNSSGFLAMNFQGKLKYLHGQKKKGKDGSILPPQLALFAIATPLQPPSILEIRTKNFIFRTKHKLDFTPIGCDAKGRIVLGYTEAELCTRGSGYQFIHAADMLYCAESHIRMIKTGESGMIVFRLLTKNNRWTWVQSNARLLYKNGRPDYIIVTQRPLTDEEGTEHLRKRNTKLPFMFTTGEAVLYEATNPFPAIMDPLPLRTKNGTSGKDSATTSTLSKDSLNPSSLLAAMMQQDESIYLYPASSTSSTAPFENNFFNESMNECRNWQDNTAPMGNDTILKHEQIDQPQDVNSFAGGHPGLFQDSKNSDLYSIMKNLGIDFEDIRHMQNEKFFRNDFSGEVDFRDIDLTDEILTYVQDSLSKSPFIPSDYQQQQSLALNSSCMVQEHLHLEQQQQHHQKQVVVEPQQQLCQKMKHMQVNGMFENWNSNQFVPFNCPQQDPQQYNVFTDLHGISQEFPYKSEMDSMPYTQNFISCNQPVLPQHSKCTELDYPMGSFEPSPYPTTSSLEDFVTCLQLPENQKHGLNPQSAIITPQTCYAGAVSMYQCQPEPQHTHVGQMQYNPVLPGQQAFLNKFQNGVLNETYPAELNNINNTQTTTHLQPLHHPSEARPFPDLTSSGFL

IFN-γ = IFN-γ RNA expression in anti-CD3/anti-CD28 stimulated PBMC (real-time PCR); type: cell-based, human; details: anti-CD3/anti-CD28, 100, 200 or 400 nM compound, 24 hours, RNA (FIG. 24)
Method: (§1) Peripheral blood mononuclear cells (PBMC), isolated from 3 healthy subjects, were isolated by density gradient centrifugation (Lymphoprep; Nycomed Pharma) from 5 mL heparinized blood samples. PBMC were resuspended in RPMI 1640 supplemented with 10% fetal calf serum at a concentration of 1×10^6 cells/mL, cultured in 24-well culture plates (Falcon Plastic) and stimulated with medium alone or anti-CD3/anti-CD28 (Miltenyi Biotec) antibodies with or without 100, 200, or 400 nM of AhR binding compounds (02, 04, 13, 15, 17, or 24), dimethyl sulfoxide or 6-formylindolo[3,2-b]cathazole (Ficz, 200 nM). Total RNA was extracted from cells cultured for 24 hours. For RNA preparation, cells were lysed in 1 mL of guanidium thiocyanate buffer and subjected to phenol/chloroform extraction using TRizol reagent (Invitrigen). The sample obtained was quantitated by absothance at 260 nm and complementary DNA (cDNA) was synthetized from […] of total RNA. cDNA was amplified using the following conditions: denaturation for 1 minute at 95° C.; annealing for 30 seconds at 58° C. for IFN-γ, and 60° C. for f3-actin; and followed by 30 seconds of extension at 72° C. […] IL-22 was evaluated using commercially available TaqMan probes (Applied Biosystems). β-actin (forward (SEQ ID NO. 3) 5′-[…]-3′, reverse (SEQ ID NO.4) 5′-[…]-3′) was used as a housekeeping gene. Gene expression was calculated using the AACt algorithm.

IL-22 = IL-22 RNA expression in anti-CD3/anti-CD28 stimulated PBMC (real-time PCR); type: cell-based, human; details: anti-CD3/anti-CD28, 100, 200 or 400 nM compound, 24 hours, RNA (FIG. 24)
Method: as §1

[1] = cited from earlier work

| SMILES | activation of the AhR (AhR) | production of IFN-γ (IFN-γ) | production of IL-22 (IL-22) | anti-inflammatory properties in vivo [1] |
| --- | --- | --- | --- | --- |
| Cc1oncc1C(=O)Nc1ccc(C(F)(F)F)cc1 [Leflunomide] | activates |  |  |  |
| COc1ccc(Cc2nc3ccc(C(F)(F)F)cc3s2)cc1OC [compound 15, 2-(3,4-dimethoxybenzyl)-6-(trifluoromethyl)benzo[d]thiazole] |  | decreasing | strongly increases |  |
| C=CCn1nc(-c2ccc(OC)c(OC)c2)c2cccc(C(F)(F)F)c21 [SGA 360] |  |  |  | exhibits anti-inflammatory properties in vivo |
| COc1cc(Nc2nc3ccccc3[nH]2)cc(OC)c1OC [compound 17, N (3,4,5-trimethoxyphenyl)-1H-benzo[d]imidazol-2-amine] |  | decreasing | strongly increases |  |
